# Legend:
# [1] = biological target: T1, purified human PRX3 (Homo sapiens, UniProt P30048); test: Biochemical PRX3 Inhibition Assay (non-reducible crosslink by SDS PAGE + single adduct by MALDI-TOF MS); settings: 100 μM PRX3 with TRX2/thioredoxin reductase/NADPH system and hydrogen peroxide, 1-2 hr at 37° C.
# T1 construct: made in house
# T1 sequence (P30048 62-256): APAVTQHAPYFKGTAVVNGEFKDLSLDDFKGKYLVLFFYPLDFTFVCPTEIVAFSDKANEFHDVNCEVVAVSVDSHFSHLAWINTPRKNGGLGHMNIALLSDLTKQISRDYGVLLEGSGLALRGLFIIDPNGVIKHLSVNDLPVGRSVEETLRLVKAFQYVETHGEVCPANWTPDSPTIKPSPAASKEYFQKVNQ
# Text: The compounds described herein generally react with two essential cysteine residues in the mitochondrial peroxidase PRX3, leading to the formation of a non-reducible, covalent crosslink of two PRX3 monomers. This crosslink inactivates PRX3. Increased PRX3 crosslink is associated with mitochondrial stress, increased cell death in cell models of malignant mesothelioma and is associated with decreased tumor volume in a mouse model. Cunniff et al. (2015) PloS one 10, e0127310.
# (§1) To test the activity of compounds, two complimentary assays were used as described below. The Biochemical PRX3 Inhibition Assay tests the ability of each compound to crosslink PRX3 in a simple, in vitro system. In the Cellular Activity Assay, we are testing the ability of compounds to kill SK—OV-3 ovarian cancer cells.
# This assay tests the ability of each compound to form a covalent adduct with PRX3. The assay is performed as described in Nelson et al. (2021) Antioxidants (Basel) 10, 150; and Cunniff et al. (2015) PloS one 10, e0127310, and follows the appearance of non-reducible PRX3 crosslinks by SDS PAGE gel electrophoresis and follows the appearance of single PRX3 adducts by mass spectrometry. For this assay, purified human PRX3, hydrogen peroxide (the PRX3 substrate) and all the components required to enable PRX3 to catalytically cycle (thioredoxin-thioredoxin reductase-NAPDH system) are included (details below).
# The biochemical PRX3 Inhibition assay contains 100 μM PRX3, 50 μM human TRX2, 0.5 μM mouse thioredoxin reductase, and a NADPH regenerating system composed of 3.2 mM glucose 6-phosphate, 3.2 U/ml glucose 6-phosphate dehydrogenase and 0.4 mM NADPH. Samples are incubated for 1-2 hr at 37° C. with either 0.2 mM TS (positive control), compounds or an equivalent volume of DMSO (negative control). During this incubation, hydrogen peroxide is added to induce turnover of PRX3. Reactions are stopped by the addition of a buffer containing 100 mM dithiothreitol (to break disulfide bonds) and SDS (detergent to denature proteins). NADPH, Glucose 6-Phosphate, and glucose 6-phosphate dehydrogenase were purchased from Sigma Aldrich. PRX3, thioredoxin, and thioredoxin reductase were all purified to >98% purity in the Lowther laboratory according to protocols referenced in Nelson et al. (2021) Antioxidants (Basel) 10, 150; and Cunniff et al. (2015) PloS one 10, e0127310.
# To measure the amount of PRX3 crosslink, proteins in the reaction were separated by SDS-polyacrylamide gel electrophoresis and stained for total protein using GelCode Blue (Life Technologies). The amount of unmodified PRX3 and TS-PRX3 crosslink was measured by densiometric analysis of the signal for the PRX3 band running at the MW of a PRX3 crosslink (˜46 kDa) compared to the PRX3 signal at the MW of the un-modified PRX3 (−23 kD).
# To measure covalent adduct formation on a single PRX3 monomer, each reaction was exchanged into a mass spectrometry compatible buffer containing 40 mM ammonium citrate, pH 8.3 made in HPLC water. Sample was mixed 1:1 with a matrix solution containing 30 mg/mL sinapinic acid in 70% (vol/vol) acetonitrile, 0.2% formic acid and spotted to onto the sample plate. PRX3 mass was measured by MALDI-TOF MS analysis on a Bruker Daltonics MALDI-TOF MS spectrometer. Spectra were analyzed in FLEXAnalysis Software. The intensity of the reduced PRX3 peak (SH) and intensity of the analog adduct peak was determined and corrected for background signal at the adduct peak in the DMSO control. The fraction of single analog adduct in the monomer peak was determined by dividing the intensity of the adduct peak by the summed intensity of the SH and adduct peaks.
# [2] = Solubility Assay (HPLC); type: physicochemical; settings: HEPES/NaCl buffer, aqueous with cosolvent or surfactant or cyclodextrin, kinetic from dmso stock; 20 mM HEPES, 100 mM NaCl, pH 7.5, 18-24 hours at ambient temperature; read-out: Solubility
# Method: A 20 mM stock solution was made for each compound in DMSO. To measure solubility, 0.03-0.05 mL of the stock was added to 0.27 mL 20 mM HEPES, 100 mM NaCl, pH 7.5. The solution was mixed and rotated 18-24 hours at ambient temperature. The next day, solutions were centrifuged for 10 min at 20,000×g at […] to remove insoluble, solid material. Next, 100 μL of the supernatant containing the soluble compound was added to 900 μL DMSO and High Performance Liquid Chromatography was performed as described in Table 1 and either HIPLC gradient 1 (Table 2) or HIPLC gradient 2 (Table 3). For each analog, a 200 μM standard and a 20 μM standard were prepared and run in parallel (standards were dissolved completely in […]). The amount ofLcompound in the experimental sample was calculated by comparing the area under the curve for compound peak to the area for the closest standard and correcting for dilution.
# [3] = system: human SK—OV-3 ovarian cancer cells; test: Cellular Activity Assay (cytotoxicity, crystal violet); type: cell-based; settings: Homo sapiens, SK—OV-3 cells, treated for 48 hr, 0.1-100 μM, crystal violet absorbance at 540 nm
# Text: as §1
# The Cellular Activity Assay measures the EC50 of each compound in human SK—OV-3 ovarian cancer cells TS to be taken into the cell, transported to the mitochondria, and crosslink PRX3.
# The cytotoxicity of compounds was measured as described in Nelson et al. (2021) Antioxidants (Basel) 10, 150; Cunniff et al. (2015) PloS one 10, e0127310; and Newick et al. (2012) PloS one 7, e39404. SK—OV-3 is an adherent, epithelial, adenocarcinoma cell line obtained from ATCC (ref #: HTB-77). SK—OV-3 cells are resistant to the commonly used chemotherapeutics, cis-platinum and doxorubicin. For this […], SK—OV-3 cells were plated in a 96-well plate. After 24 h recovery, the cells were treated for 48 hr with multiple concentrations of each compound ranging from 0.1-100 μM.
# Cells were washed with PBS to remove dead cells and the remaining live cells were fixed with 3.0% formaldehyde and stained with 0.1% crystal violet. The amount of crystal violet was determined by reading the absorbance at 540 nm (crystal violet dye dissolved in 100% methanol) using a plate reader. The signal for crystal violet dye is proportional to the biomass of remaining live cells. GraphPad Prism9 software was used to calculate the effective inhibitory concentration (EC50) of test compounds. Results for each compound, are normalized to the amount of cells in control wells treated with the equivalent concentration of DMSO (negative control). TS or Compound 4 were included in each set of assays as a positive control.
structure (smiles),measurement,setting,value
"C=C(NC(=O)c1csc(-c2ccc(CNC(=O)OCC3CCOCC3)cc2)n1)C(=O)NC(=C)C(=O)OC [Compound 45, Methyl 2-(2-(2-(4-(((((tetrahydro-2H-pyran-4-yl)methoxy)carbonyl)amino)methyl)phenyl)thiazole-4-carboxamido)acrylamido)acrylate]",PRX3 Inhibition (Crosslink + Mono-adduct),[1],++ (50-90%)
same,solubility,[2],< 100 µM
same,EC50,[3],1 to 10 µM
"C=C(NC(=O)c1csc(N2CCC(NC(=O)C3CCOCC3)CC2)n1)C(=O)NC(=C)C(=O)OC [Compound 46, Methyl 2-(2-(2-(4-(tetrahydro-2H-pyran-4-carboxamido)piperidin-1-yl)thiazole-4-carboxamido)acrylamido)acrylate]",PRX3 Inhibition (Crosslink + Mono-adduct),[1],+++ (>90%)
same,solubility,[2],100 to 1000 µM
same,EC50,[3],1 to 10 µM
"C=C(NC(=O)c1csc(N2CCN(C(=O)COCCOC)CC2)n1)C(=O)NC(=C)C(=O)OC [Compound 47, Methyl 2-(2-(2-(4-(2-(2-methoxyethoxy)acetyl)piperazin-1-yl)thiazole-4-carboxamido)acrylamido)acrylate]",PRX3 Inhibition (Crosslink + Mono-adduct),[1],++ (50-90%)
same,solubility,[2],> 1000 µM
same,EC50,"[3]; SK-OV-3, 48 h",25 to 100 µM
"C=C(NC(=O)c1csc(-c2ccc(NC(=O)CCCCCCl)cc2)n1)C(=O)NC(=C)C(=O)OC [Compound 48, Methyl 2-(2-(2-(4-(6-chlorohexanamido)phenyl)thiazole-4-carboxamido)acrylamido)acrylate]",PRX3 Inhibition (Crosslink + Mono-adduct),[1],++ (50-90%)
same,solubility,[2],< 100 µM
same,EC50,[3],1 to 10 µM
"C=C(NC(=O)c1csc(-c2ccc(CNC(=O)OCCOCCNC(=O)OC(C)(C)C)cc2)n1)C(=O)NC(=C)C(=O)OC [Compound 49, Methyl 2-(2-(2-(4-(13,13-dimethyl-3,11-dioxo-4,7,12-trioxa-2,10-diazatetradecyl)phenyl)thiazole-4-carboxamido)acrylamido)acrylate]",PRX3 Inhibition (Crosslink + Mono-adduct),[1],+++ (>90%)
same,solubility,[2],< 100 µM
same,EC50,"[3]; SK-OV-3, 48 h",1 to 10 µM
"C=C(NC(=O)c1csc(-c2ccc(CNC(=O)OCCCCCCN=[N+]=[N-])cc2)n1)C(=O)NC(=C)C(=O)OC [Compound 50, Methyl 2-(2-(2-(4-(((((6-azidohexyl)oxy)carbonyl)amino)methyl)phenyl)thiazole-4-carboxamido)acrylamido)acrylate]",PRX3 Inhibition (Crosslink + Mono-adduct),[1],+ (5-50%)
same,solubility,[2],< 100 µM
same,EC50,[3],1 to 10 µM
"C=C(NC(=O)c1csc(N2CCC(CNC(=O)C3CCOCC3)CC2)n1)C(=O)NC(=C)C(=O)OC [Compound 52, methyl 2-(2-(2-(4-((tetrahydro-2H-pyran-4-carboxamido)methyl)piperidin-1-yl)thiazole-4-carboxamido)acrylamido)acrylate]",PRX3 Inhibition (Crosslink + Mono-adduct),[1],+++ (>90%)
same,solubility,[2],< 100 µM
same,EC50,[3],10 to 25 µM
"C=C(NC(=O)c1csc(N2CCC(C(=O)NC3CCOCC3)CC2)n1)C(=O)NC(=C)C(=O)OC [Compound 53, Methyl 2-(2-(2-(4-((tetrahydro-2H-pyran-4-yl)carbamoyl)piperidin-1-yl)thiazole-4-carboxamido)acrylamido)acrylate]",PRX3 Inhibition (Crosslink + Mono-adduct),[1],+++ (>90%)
same,solubility,[2],< 100 µM
same,EC50,[3],10 to 25 µM
"C=C(NC(=O)c1csc(N2CCC[C@H](NC(=O)C3CCOCC3)C2)n1)C(=O)NC(=C)C(=O)OC [Compound 54, methyl (S)-2-(2-(2-(3-(tetrahydro-2H-pyran-4-carboxamido)piperidin-1-yl)thiazole-4-carboxamido)acrylamido)acrylate]",PRX3 Inhibition (Crosslink + Mono-adduct),[1],++ (50-90%)
same,solubility,[2],< 100 µM
same,EC50,[3],25 to 100 µM
"C=C(NC(=O)c1csc(N2CCC(NC(=O)COC)CC2)n1)C(=O)NC(=C)C(=O)OC [Compound 55, Methyl 2-(2-(2-(4-(2-methoxyacetamido)piperidin-1-yl)thiazole-4-carboxamido)acrylamido)acrylate]",PRX3 Inhibition (Crosslink + Mono-adduct),[1],++ (50-90%)
same,solubility,[2],< 100 µM
same,EC50,"[3]; SK-OV-3, 48 h",10 to 25 µM
"C=C(NC(=O)c1csc(N2C[C@@H](C)N(C(=O)OC(C)(C)C)[C@@H](C)C2)n1)C(=O)NC(=C)C(=O)OC [Compound 56, Tert-butyl (cis)-4-(4-((3-((3-methoxy-3-oxoprop-1-en-2-yl)amino)-3-oxoprop-1-en-2-yl)carbamoyl)thiazol-2-yl)-2,6-dimethylpiperazine-1-carboxylate]",PRX3 Inhibition (Crosslink + Mono-adduct),[1],++ (50-90%)
same,solubility,[2],< 100 µM
same,EC50,[3],1 to 10 µM
"C=C(NC(=O)c1csc(N2CCN(C(=O)OC(C)(C)C)[C@@H](C)C2)n1)C(=O)NC(=C)C(=O)OC [Compound 57, Tert-butyl (S)-4-(4-((3-((3-methoxy-3-oxoprop-1-en-2-yl)amino)-3-oxoprop-1-en-2-yl)carbamoyl)thiazol-2-yl)-2-methylpiperazine-1-carboxylate]",PRX3 Inhibition (Crosslink + Mono-adduct),[1],+++ (>90%)
same,solubility,[2],< 100 µM
same,EC50,[3],1 to 10 µM

# — patent US20250011316A1, “PEROXIREDOXIN 3 INHIBITORS AND METHODS OF USE FOR TREATING CANCER” (Wake Forest University Health Sciences, priority 2022, published 2025)
